Results as given in patent publication US8629132B2, “Kinase inhibitors” (Genosco, priority 2009, dated 2014).
pIC50: −log10 of the molar value.

Assays:
[1] = target: T1, PYK2 (Homo sapiens, UniProt Q14289); test: Kinase inhibition assay: PYK2; assay type: biochemical; settings: at 1 μM concentration
T1 construct: Purified full-length human SYK, ZAP70, PIM1, PYK2; purchased Carna Biosciences
Procedure: Compounds of the present invention were tested for their capacity to inhibit a kinase panel which includes, but are not limited to, spleen tyrosine kinase (SYK), zeta-chain-associated protein kinase 70 (ZAP70), PTK2B protein tyrosine kinase 2 (PYK2), focal adhesion kinase (FAK), provirus integration of maloney kinase 1 (PIM1), rearranged during transfection kinase (RET), Fms-like tyrosine kinase 3 (FLT3), Janus kinase 2 (JAK2), and leucine-rich repeat kinase 2 (LRRK2).
Inhibition of SYK, ZAP70, PYK2, FAK, PIM1, RET, FLT3, JAK2 and LRRK2 Kinase Activity
Compounds of the invention were initially diluted to 10 mM in 100% DMSO (CALBIOCHEM™) for storage and made into kinase buffer solution to create a compound concentration ranging from 1 uM and 10 uM. Serial dilutions of compounds of the invention were dispensed into a 96-well plate (GREINER BIOSCIENCES™) at 6 μL each. Purified full-length human SYK, ZAP70, PIM1, PYK2 and truncated human FAK, RET, FLT3, JAK2, and LRRK2 (CARNA BIOSCIENCES™) were diluted in kinase buffer and added to the compound solutions and pre-incubated for 30 minutes at room temperature (1 hour for PYK2). […] The reaction mixture was incubated for 1 hour (2 hours for PYK2). Following the incubation, the stop solution made with EDTA, water, and Lance detection buffer ([…]™) was added (12μL each) to stop phosphorylation. […] The IC50 value of test compound was calculated at Gradpad Prism 5 unless specified otherwise.

[2] = target: T2, FLT3 (Homo sapiens, UniProt P36888); test: Kinase inhibition assay: FLT3; assay type: biochemical
T2 construct: truncated human FAK, RET, FLT3, JAK2, and LRRK2; purchased Carna Biosciences
T2 sequence (P36888 564-993 limits assumed): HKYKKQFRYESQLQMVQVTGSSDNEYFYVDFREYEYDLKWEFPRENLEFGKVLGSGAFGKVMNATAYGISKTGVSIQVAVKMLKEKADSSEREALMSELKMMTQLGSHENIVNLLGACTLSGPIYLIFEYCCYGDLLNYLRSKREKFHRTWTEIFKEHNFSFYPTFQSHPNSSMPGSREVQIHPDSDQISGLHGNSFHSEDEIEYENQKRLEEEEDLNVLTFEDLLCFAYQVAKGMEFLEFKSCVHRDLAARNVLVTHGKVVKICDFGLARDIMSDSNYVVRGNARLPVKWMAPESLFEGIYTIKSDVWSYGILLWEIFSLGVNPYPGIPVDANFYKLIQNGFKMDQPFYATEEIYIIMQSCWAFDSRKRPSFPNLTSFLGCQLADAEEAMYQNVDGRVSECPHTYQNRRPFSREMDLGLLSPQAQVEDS

[3] = system: HEL cells; test: Cell viability assay: JAK2 inhibition; assay type: cell-based, human
Procedure: Compounds of the invention are tested for their effects on JAK2 inhibition in human erythroleukemic cell line (HEL) to illustrate potential efficacy at the cellular level. The Janus-associated kinase (JAK) family, comprised of four different protein tyrosine kinases JAK1, JAK2, JAK3, and TYK2, plays an important role in cellular survival, proliferation, and differentiation. V617F, a unique mutation in the JAK2 gene (a valine-to-phenylalanine substitution) results in constitutive kinase activity and promotes deregulated hematopoiesis. JAK2 V617F is frequently detected in myeloproliferative disorders (MPDs), a group of clonal hematopoietic stem cell disorders that include polycythemia vera (PV), essential thrombocythemia (ET), and idiopathic myelofibrosis (IMF), all of which have the potential to transform to acute myeloid leukemia. JAK2 V617F is constitutively phosphorylated and able to activate downstream signaling in the absence of cytokine stimulation.
Compounds of the present invention were tested for their effects on viability of HEL cells. For cell viability assay, HEL cells expressing human JAK2 V617F were obtained from the American Type Culture Collection (ATCC, Manassas, Va.). This cell line was maintained with Roswell Park Memorial Institute (RPMI) medium (HyClone™) containing 10 bovine calf serum (BCS; Hyclone™) supplemented iron. The HEL cells were seeded at 2×10^4 cells in 96 well culture plates, and serially diluted compound was then added. After a 72-hour incubation period at 37° C., viability of cells was measured using the ATPLite 1 step assay (Perkin-Elmer™) that is based on the quantification of ATP from viable cells. CellTiter Aqueous assay (Promega™) was also performed in parallel as an orthogonal assay. IC50 values were calculated using nonlinear regression and defined as the concentration needed for a 50 reduction in luminescence or absorbance treated versus untreated control cells (Prism™ Software).

T1 sequence (Q14289 whole entry): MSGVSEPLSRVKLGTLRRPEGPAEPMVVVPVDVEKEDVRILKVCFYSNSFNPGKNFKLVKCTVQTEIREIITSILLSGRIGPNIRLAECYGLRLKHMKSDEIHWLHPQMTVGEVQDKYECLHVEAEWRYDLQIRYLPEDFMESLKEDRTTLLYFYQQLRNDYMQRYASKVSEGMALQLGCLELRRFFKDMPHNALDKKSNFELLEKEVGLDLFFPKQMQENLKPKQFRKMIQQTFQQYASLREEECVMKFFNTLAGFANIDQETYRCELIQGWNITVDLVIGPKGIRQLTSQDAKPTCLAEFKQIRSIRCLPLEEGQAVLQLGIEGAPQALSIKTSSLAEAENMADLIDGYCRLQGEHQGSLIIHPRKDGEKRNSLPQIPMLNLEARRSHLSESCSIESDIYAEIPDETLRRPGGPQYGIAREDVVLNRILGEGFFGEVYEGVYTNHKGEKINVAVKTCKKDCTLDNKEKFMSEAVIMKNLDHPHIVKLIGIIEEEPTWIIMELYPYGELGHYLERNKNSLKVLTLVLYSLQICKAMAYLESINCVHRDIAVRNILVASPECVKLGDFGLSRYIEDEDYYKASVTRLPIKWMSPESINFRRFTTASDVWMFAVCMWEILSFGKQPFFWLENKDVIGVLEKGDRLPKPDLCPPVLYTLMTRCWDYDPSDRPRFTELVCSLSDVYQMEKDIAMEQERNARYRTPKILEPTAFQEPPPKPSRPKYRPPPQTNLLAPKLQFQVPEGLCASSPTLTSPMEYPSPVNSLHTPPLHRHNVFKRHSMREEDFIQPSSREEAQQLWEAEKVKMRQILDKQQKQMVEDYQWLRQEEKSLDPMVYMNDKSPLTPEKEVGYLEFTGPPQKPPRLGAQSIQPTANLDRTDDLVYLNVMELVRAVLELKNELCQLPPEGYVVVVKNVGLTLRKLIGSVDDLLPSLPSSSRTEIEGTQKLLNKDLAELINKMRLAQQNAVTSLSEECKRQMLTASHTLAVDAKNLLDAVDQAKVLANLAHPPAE

inhibition at 1 µM [1]: 78.2% | pIC50 [2]: 8.72
SMILES: COc1cc(Nc2ncc(C)c(-n3cc(C)c(CO)c3)n2)cc(OC)c1OC [Compound 21, (4-methyl-1-(5-methyl-2-(3,4,5-trimethoxyphenylamino)pyrimidin-4-yl)-1H-pyrrol-3-yl)methanol]
inhibition level compared with Sorafenib ([3]; HEL): greater than those exhibited by Sorafenib | IC50 ([3]; Homo sapiens, 72-hour incubation, HEL cells expressing JAK2 V617F, read-out: Cell Viability: JAK2 kinase Inhibition HEL (IC50 nM)): 144 nM
